Assay results as given in ChEMBL document CHEMBL6083254, “Optimization of B-Ring-Functionalized Antimalarial Tambjamines and Prodiginines” (J Med Chem, 2024).
“And” between values parts separate entries of the source, which are not always exact repeats. Equal values may be shown once. The source made the active and inactive calls. The rule behind the calls is not given here.

Key:
[1] = tested on: Plasmodium falciparum; test: microbe, parasite or virus in culture; conditions: Tm90-C2B, 72 h
[2] = Metabolic stability in mouse liver microsomes assessed as intrinsic clearance measured upto 60 mins LC-MS analysis
[3] = tested on: Plasmodium falciparum; test: microbe, parasite or virus in culture; conditions: Dd2, 72 h
[4] = (§1) Cytotoxicity against human HepG2 cells assessed as cell viability incubated for 72 hrs by MTT assay; assay type: toxicity, cell-based; conditions: human, HepG2 cells
[5] = Metabolic stability in human liver microsomes assessed as half life measured upto 60 mins LC-MS analysis
[6] = in vitro; conditions: human
Description: Selectivity index, ratio of IC50 for cytotoxicity against human HepG2 cells assessed as cell viability to IC50 for antiplasmodial activity against asexual erythrocytic stage of Plasmodium falciparum D6 assessed as inhibition of parasitic growth incubated

[7] = tested on: Plasmodium yoelii; test: Antiplasmodial activity against asexual erythrocytic stage of Plasmodium yoelii infected in female CFI mouse model assessed as reduction in parasitemia at 3 mg/kg, po administered once daily for 4 days and measured on day 5 by Giemsa staining based microscopic analysis relative to control; assay type: functional
[8] = Metabolic stability in mouse liver microsomes assessed as half life measured upto 60 mins LC-MS analysis
[9] = tested on: Plasmodium yoelii; test: Antiplasmodial activity against asexual erythrocytic stage of Plasmodium yoelii infected in female CFI mouse model assessed as reduction in parasitemia at 10 mg/kg, po administered once daily for 4 days and measured on day 5 by Giemsa staining based microscopic analysis relative to control; assay type: functional
[10] = tested on: Plasmodium yoelii; test: Antiplasmodial activity against asexual erythrocytic stage of Plasmodium yoelii infected in female CFI mouse model at 25 mg/kg, po administered once daily for 4 days and measured on day 5 by Giemsa staining based microscopic analysis; assay type: functional, organism-based; conditions: time 5.0 day
[11] = tested on: Plasmodium yoelii; test: Antiplasmodial activity against asexual erythrocytic stage of Plasmodium yoelii infected in female CFI mouse model assessed as reduction in parasitemia at 1 mg/kg, po administered once daily for 4 days and measured on day 5 by Giemsa staining based microscopic analysis relative to control; assay type: functional
[12] = tested on: Plasmodium yoelii; test: Antiplasmodial activity against asexual erythrocytic stage of Plasmodium yoelii infected in female CFI mouse model assessed as reduction in parasitemia at 25 mg/kg, po administered once daily for 4 days and measured on day 5 by Giemsa staining based microscopic analysis relative to control; assay type: functional; parameters: scale not given: the % may be the effect or the level left; conditions: time 5 day
[13] = Metabolic stability in human liver microsomes assessed as intrinsic clearance measured upto 60 mins LC-MS analysis
[14] = Aqueous solubility of compound in PBS buffer at pH 7.4 incubated for 90 mins by UV-vis spectroscopic analysis; conditions: pH 7.4, 1.5 h
[15] = tested on: Plasmodium falciparum; test: microbe, parasite or virus in culture; conditions: D6, 72 h
[16] = tested on: Plasmodium yoelii; test: Antiplasmodial activity against asexual erythrocytic stage of Plasmodium yoelii infected in female CFI mouse model at 10 mg/kg, po administered once daily for 4 days and measured on day 5 by Giemsa staining based microscopic analysis; assay type: functional, organism-based; conditions: time 5.0 day
[17] = tested on: HepG2; test: as §1; assay type: toxicity, cell-based; conditions: hepg2
[18] = tested on: Plasmodium yoelii; test: Antiplasmodial activity against asexual erythrocytic stage of Plasmodium yoelii infected in po dosed female CFI mouse model assessed as reduction in parasitemia administered once daily for 4 days and measured on day 5 by Giemsa staining based microscopic analysis; assay type: functional; conditions: time 5 day, 120 h
[19] = Plasmodium yoelii, po, read-out: ED50

SMILES: CCCCCCCCCCCc1ccc(/C=C2\N=C(c3ccc[nH]3)C=C2Oc2ccccc2)[nH]1.Cl
- IC50 [1]: 64.3 nM
- microsomal CLint at 1 h [2]: 85.7 µL/min/mg
- IC50 [3]: 80.9 nM
- IC50 at 72 h [4]: > 200000 nM
- half-life at 1 h [5]: 59.2 min
- selectivity ratio [6]: > 2440
- Activity ([7]; time 5.0 day): inactive
- half-life at 1 h [8]: 16.2 min
- Activity ([9]; time 5.0 day): inactive
- Activity [10]: inactive
- Activity ([11]; time 5.0 day): inactive
- Activity [12]: 100%
- microsomal CLint at 1 h [13]: 23.4 µL/min/mg
- solubility [14]: 8.19 µM

SMILES: CCCCCc1cc(/C=C2\N=C(c3ccc[nH]3)C=C2OCCC)[nH]c1C.Cl
- IC50 [15]: 0.307 nM
- IC50 [1]: 4.58 nM
- microsomal CLint at 1 h [2]: 40.8 µL/min/mg
- Activity [16]: inactive
- IC50 [3]: 0.501 nM
- IC50 [17]: 3560 nM
- half-life at 1 h [5]: 43.6 min
- selectivity ratio [6]: 11600
- Activity ([7]; time 5 day): 89.9%
- half-life at 1 h [8]: 34 min
- Activity ([9]; time 5 day): 100%
- Activity ([11]; time 5 day): 23.9%
- Activity [12]: 100%
- ED50 [18]: 1.46 mg/kg/day and 3 mg/kg/day
- microsomal CLint at 1 h [13]: 31.8 µL/min/mg
- solubility [14]: 18.5 µM

SMILES: CCCCCc1cc(/C=C2\N=C(c3ccc[nH]3)C=C2Oc2ccc(OC(F)(F)F)cc2)[nH]c1C.Cl
- IC50 [15]: 8.61 nM
- IC50 [1]: 9.54 nM
- microsomal CLint at 1 h [2]: 36.4 µL/min/mg
- Activity [16]: inactive
- IC50 [3]: 7.4 nM
- IC50 [17]: 16500 nM
- half-life at 1 h [5]: 59.4 min
- selectivity ratio [6]: 1910
- Activity ([7]; time 5 day): 92%
- half-life at 1 h [8]: 38 min
- Activity ([9]; time 5 day): 100%
- Activity [10]: Active
- Activity ([11]; time 5 day): 49.1%
- Activity [12]: 100%
- ED50 [18, 19]: 1.01 mg/kg/day
- microsomal CLint at 1 h [13]: 23.3 µL/min/mg
- solubility [14]: < 3.125 µM

SMILES: CCCCCC1=C/C(=C\c2[nH]c(-c3ccc[nH]3)cc2OC)N=C1C
- IC50 [15]: 8.01 nM
- IC50 [1]: 8.8 nM
- microsomal CLint at 1 h [2]: 61.2 µL/min/mg
- IC50 [3]: 7.32 nM
- IC50 at 72 h [4]: 1070 nM
- half-life at 1 h [5]: > 60 min
- half-life at 1 h [8]: 23 min
- microsomal CLint at 1 h [13]: 13.1 µL/min/mg

SMILES: CCCCCc1cc(/C=C2\N=C(c3ccc[nH]3)C=C2Oc2ccc(Cl)cc2)[nH]c1C.Cl
- IC50 [15]: 7.89 nM
- IC50 [1]: 10 nM
- IC50 [3]: 7.03 nM
- IC50 [17]: 9570 nM
- selectivity ratio [6]: 1210
- Activity ([9]; time 5 day): 100%
- Activity [10]: Active
- Activity ([11]; time 5 day): 5.01%
- ED50 [18, 19]: 1.15 mg/kg/day
- ED50 [18]: 1.25 mg/kg/day

SMILES: CCCCCc1cc(/C=C2\N=C(c3ccc[nH]3)C=C2OCC)[nH]c1C.Cl
- IC50 [15]: 2.45 nM
- IC50 [1]: 7.29 nM
- Activity [16]: inactive
- IC50 [3]: 1.31 nM
- IC50 [17]: 3680 nM
- selectivity ratio [6]: 1500
- Activity ([7]; time 5 day): 46.6%
- Activity ([9]; time 5 day): 100%
- Activity ([11]; time 5 day): 2.1%
- Activity [12]: 100%
- ED50 [18, 19]: 3.12 mg/kg/day
- ED50 [18]: 5.61 mg/kg/day

SMILES: CCCCCc1cc(/C=C2\N=C(c3ccc[nH]3)C=C2OC(C)C)[nH]c1C.Cl
- IC50 [15]: 1.09 nM
- IC50 [1]: 1.56 nM
- Activity [16]: inactive
- IC50 [3]: 0.27 nM
- IC50 [17]: 3480 nM
- selectivity ratio [6]: 3190
- Activity ([7]; time 5 day): 71.8%
- Activity ([9]; time 5 day): 100%
- Activity [10]: Active
- Activity ([11]; time 5 day): 4.2%
- Activity [12]: 100%
- ED50 [18, 19]: 2.25 mg/kg/day
- ED50 [18]: 4.42 mg/kg/day

SMILES: CCCCCCCCCCCC1=N/C(=C\c2[nH]c(-c3ccc[nH]3)cc2OC)C=C1 [UNDECYLPRODIGININE]
- IC50 [15]: 7.22 nM
- IC50 [1]: 8.21 nM
- IC50 [3]: 7.54 nM
- IC50 at 72 h [4]: 1710 nM
- selectivity ratio [6]: 237
- Activity ([7]; time 5.0 day): inactive
- Activity ([9]; time 5.0 day): inactive
- Activity [10]: Active
- Activity ([11]; time 5.0 day): inactive
- Activity [12]: 100%
